Key:
[1] = stability toward air: neutralization of the salt by CO2 and water to neutral Cel (Cel-III); type: physicochemical
From the text: The behavior was first observed when using compressed air instead of nitrogen in the dynamic vapor sorption experiment, but it was also clear in samples stored open in controlled humidity chambers. The neutralization was minimized to get clean PXRD patterns by including small vials of concentrated NaOH solution within the closed humidity chambers to remove CO2 from the air. […] Throughout the conversion, both Cel-III and the sodium salt are clearly observed by PXRD with Cel-III growing slowly over time.

[2] = storage in controlled humidity chambers monitored by PXRD (physical form stability); type: physicochemical
From the text: Indeed, understanding the behavior of the salt form before the single crystal structure was solved was challenging in that the powder patterns seemed to change almost daily, even when powders were equilibrated in humidity chambers prior to measurement. […] Consistent powder patterns were obtained by two distinct methods. In the first method, powder was filled into 0.5 mm capillary tubes, equilibrated in controlled humidity chambers for 1 week, sealed with silicone grease immediately upon removal from the humidity chambers, and measured immediately with a transmission powder X-ray diffractometer. In the second, a sample was monitored by a reflectance mode powder X-ray diffractometer fitted with a controlled humidity stage. The two methods were complimentary. The capillary method provided high resolution patterns without preferred orientation effects. However, the humidity control was coarse and was limited to conditions that could be achieved with standard saturated salt solutions.
The rate of conversion to Cel-NaPG(H2O)3 is very slow at 18% RH and increases to the point where conversion takes less than one day at 54% RH or higher.

[3] = Dynamic Vapor Sorption (DVS) moisture sorption analysis; type: physicochemical
Method: Moisture sorption analysis was performed using a Dynamic Vapor Sorption apparatus (Surface Measurement Systems, Monarch Beach, Calif.). Each sample was placed in a clean glass crucible and equilibrated in the apparatus at a specified RH level. Varying the flow rates of dry nitrogen gas and saturated wet nitrogen gas streams controlled RH; the total combined flow rate was kept constant at 200 standard […] per minute. After initial equilibration, RH was varied and change in mass was recorded over time as an indication of moisture sorption. Mass equilibration at each humidity level was determined as a change in mass less than ±2×10^−5 grams over a time interval of 1 minute (dm/dt of 0.002% min). After the assay, the change in mass was mathematically converted to water molar equivalents per dry compound molar equivalent.
The dynamic vapor sorption profiles were measured starting with Cel-NaPG at 0% RH, and for Cel-NaPG(H2O)3 beginning at 20% RH to avoid dehydrating it prior to the first absorption cycle. The profiles are shown in FIG. 12 alongside PXRD patterns for samples of Cel-NaPG stored in controlled humidity chambers for 1-2 days.

[4] = 1H NMR determination of Cel:PG ratio after exposure to 0% RH and 40% RH in the DVS; type: physicochemical
Method: ^1H NMR measurements were conducted using a Varian 400 MHz spectrometer with averaging of 128 scans. Samples were prepared as 10 mg/ml solutions of Cel in CDCl3.
Increased lability and loss of PG during the transition from anhydrous to trihydrate was believed to be the most likely explanation for the weight loss. ^1H NMR was used to determine whether the PG solvate is lost continuously throughout the humidity cycle or only during change in the hydration state. Cel-NaPG and Cel-NaPG(H2O)3 were exposed to 0% RH and 40% RH in the DVS and then dissolved in methanol-d4 for NMR analysis. The Cel:PG ratio was stable at 1/1 for Cel-NaPG(H2O)3 after treatment for either four hours at 40% RH or 18 hours at 0% RH. […] Since the Cel-NaPG(H2O)3 has a wide range of physical stability, conversion from the trihydrate to the anhydrous and then back to the trihydrate should be a rare event. In a closed system such as a packaged tablet, PG should not be lost as easily as it is in the dynamic environment of the DVS where gases continuously flow over the sample to carry away any volatile components.

[5] = TGA; type: physicochemical
[6] = physchem; details: aqueous sodium hydroxide solution, pH 12, aqueous buffer
[7] = cited from earlier work

## Cc1ccc(-c2cc(C(F)(F)F)nn2-c2ccc(S(N)(=O)=O)cc2)cc1 [Cel-Na(H2O)x]
[1]; sealed vial
  physical stability in a sealed vial: physically stable

## CC(O)CO.Cc1ccc(-c2cc(C(F)(F)F)nn2-c2ccc(S([NH-])(=O)=O)cc2)cc1.O.O.O.[Na+] [Cel-NaPG(H2O)3, propylene glycol solvate of celecoxib sodium trihydrate]
[2]; 4 days of storage over the 18% RH salt bath
  conversion to Cel-NaPG (dehydration): no conversion to Cel-NaPG
[1]
  reaction with CO2 and water in the air: resistant to reaction with CO2 and water in the air
[1]; after 4 days at 45 66% RH
  conversion to neutral Cel: no conversion was observed
[3]; between 10 and 70% RH at 25° C.
  reversible weight gain: 1.2 % weight
[3]; started at 20% RH, single humidity cycle
  loss of dry weight after a single humidity cycle: no loss was seen

## CC(O)CO.Cc1ccc(-c2cc(C(F)(F)F)nn2-c2ccc(S([NH-])(=O)=O)cc2)cc1.[Na+] [Cel-NaPG]
[4]; over four hours at 40% RH
  PG lost: 8.2%
[4]; stream of dry nitrogen for 18 hours (0% RH)
  stability of PG content: remaining stable
[2]; 54% RH or higher
  time for conversion to Cel-NaPG(H2O)3: less than one
[5]; under a flow of nitrogen
  temperature until which PG is retained (TGA): approximately 80 °C
[5]; within 1 day, stored in a 38% RH chamber
  water gained (TGA): about 2 equiv
[3]; 25° C., after desorption
  additional weight loss after going through the entire DVS profile: 2 % weight
[3]; DVS profile started at 0% RH, 25° C.
  weight gain during adsorption: ~14 % weight

## Cc1ccc(-c2cc(C(F)(F)F)nn2-c2ccc(S(N)(=O)=O)cc2)cc1 [celecoxib]
[6]
  solubility: ≥ 380 mg/mL
[7]
  aqueous solubility of celecoxib at physiological pH: < 0.5 μg/ml

— patent US8410287B2 (McNeil-PPC, Inc., priority 2010, dated 2013)
